According to patent US20260108546A1 (ELI LILLY AND COMPANY, priority 2024, published 2026):

Target: T1, hGIP-R (Homo sapiens, UniProt P48546)
T1 construct: expressed in transfected cells; host or cells: HEK-293 clonal cell lines
T1 sequence (P48546 22-466): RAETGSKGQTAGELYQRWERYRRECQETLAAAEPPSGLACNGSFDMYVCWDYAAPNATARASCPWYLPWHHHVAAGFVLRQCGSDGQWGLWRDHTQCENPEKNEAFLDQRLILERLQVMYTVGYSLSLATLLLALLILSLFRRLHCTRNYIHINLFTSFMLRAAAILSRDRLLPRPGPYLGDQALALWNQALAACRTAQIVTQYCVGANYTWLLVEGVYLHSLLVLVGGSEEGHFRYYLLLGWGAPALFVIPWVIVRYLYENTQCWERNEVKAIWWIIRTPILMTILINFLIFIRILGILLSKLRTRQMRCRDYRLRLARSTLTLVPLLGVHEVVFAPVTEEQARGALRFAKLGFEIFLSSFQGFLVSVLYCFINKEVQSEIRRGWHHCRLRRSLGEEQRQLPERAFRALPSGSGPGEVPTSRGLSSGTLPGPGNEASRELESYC
Assay: Functional hGIP-R Assay (cAMP formation, HTRF)
Assay type: cell-based
Conditions: for Emax: cAMP efficacy, percent of maximal response to GIP(1-42)OH, 37° C., 0.1% bovine casein, arithmetic mean ± SEM; for EC50: cAMP potency, HEK-293 cells expressing hGIP-R, incubated at 37° C. in the presence of 0.1% bovine casein, geometric mean, read-out: Human GIP-R EC50, nM (SEM, n)
Procedure, shortened: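 Relative EC50 and Emax came from four-parameter logistic fits of cAMP as a percent of the human GIP (1-42) OH maximal response. The cAMP was measured by competitive HTRF after 30 min, 37 °C compound exposure of hGIP-R HEK-293 clones in IBMX (250 μM)-containing medium.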

Compound `Cn1cc(C[C@@H](NC(=O)[C@H]2C[C@@H]2c2ccc(-c3cnc4nc(C(F)(F)F)cn4c3)cc2)C(=O)NC(C)(C)Cn2nc(C(F)(F)F)cc2-c2nnc[nH]2)cn1` [Example 25, (1S,2S)-N-((R)-1-((1-(5-(4H-1,2,4-Triazol-3-yl)-3-(trifluoromethyl)-1H-pyrazol-1-yl)-2-methylpropan-2-yl)amino)-3-(1-methyl-1H-pyrazol-4-yl)-1-oxopropan-2-yl)-2-(4-(2-(trifluoromethyl)imidazo [1,2-a]pyrimidin-6-yl)phenyl) cyclopropane-1-carboxamide] has an Emax of 142 ± 17.3% and an EC50 of 82.7 nM.
`Cc1cn2cc(-c3ccc(C4CC45CCN([C@H](Cc4cnn(C(F)F)c4)C(=O)NC(C)(C)Cn4nc(C(F)(F)F)cc4-c4ccc(=O)n(C)c4)C5=O)c(C(F)(F)F)c3)cnc2n1` (single isomer, unassigned; isomer 1) [Example 153] was tested, and the Emax was 77 ± 2.05% and the EC50 was 0.478 nM.
`Cn1cc2cc(-c3ccc([C@H]4C[C@@]45CCN([C@H](Cc4cnn(C(F)F)c4)C(=O)NC(C)(C)Cn4nc(C(F)(F)F)cc4-c4cc(F)c6nccn6c4)C5=O)cc3)cnc2n1` [Example 131, (R)-3-(1-(Difluoromethyl)-1H-pyrazol-4-yl)-N-(1-(5-(8-fluoroimidazo[1,2-a]pyridin-6-yl)-3-(trifluoromethyl)-1H-pyrazol-1-yl)-2-methylpropan-2-yl)-2-((1R,3R)-1-(4-(2-methyl-2H-pyrazolo[3,4-b]pyridin-5-yl)phenyl)-4-oxo-5-azaspiro[2.4]heptan-5-yl)propanamide] showed an Emax of 57.9 ± 4.24% and an EC50 of 17.7 nM.
`Cc1nc(-c2ccc(C(C)(C)O)nc2)ccc1[C@H]1C[C@@]12CCN([C@H](Cc1cnn(C(F)F)c1)C(=O)NC(C)(C)Cn1nc(C(F)(F)F)cc1-c1ccn(C3CC3)c(=O)c1)C2=O` [Example 171, (R)-N-(1-(5-(1-cyclopropyl-2-oxo-1,2-dihydropyridin-4-yl)-3-(trifluoromethyl)-1H-pyrazol-1-yl)-2-methylpropan-2-yl)-3-(1-(difluoromethyl)-1H-pyrazol-4-yl)-2-((1R,3R)-1-(6′-(2-hydroxypropan-2-yl)-6-methyl-[2,3′-bipyridin]-5-yl)-4-oxo-5-azaspiro[2.4]heptan-5-yl)propanamide] showed an Emax of 25.1 ± 2.38% and an EC50 of 14.2 nM.
In the case of `CC(C)(Cc1ccc(F)cc1)NC(=O)[C@@H](Cc1cnc2ncccn12)NC(=O)[C@H]1C[C@@H]1c1ccc(NC(=O)C2CC(F)(F)C2)cc1` [Example 48, 3,3-Difluoro-N-(4-((1S,2S)-2-(((R)-1-((1-(4-fluorophenyl)-2-methylpropan-2-yl)amino)-3-(imidazo[1,2-a]pyrimidin-3-yl)-1-oxopropan-2-yl)carbamoyl)cyclopropyl)phenyl)cyclobutane-1-carboxamide], the Emax is reported as 56.5 ± 4.38% and the EC50 is reported as 76.9 nM.
Work on `Cn1cc2cc(-c3ccc([C@H]4C[C@@]45CCN([C@H](Cc4cnn(C(F)F)c4)C(=O)NC(C)(C)Cn4nc(C(F)(F)F)cc4-c4ccc(=O)n(C)c4)C5=O)c(F)c3)cnc2n1` [Example 117, (2R)-3-(1-(Difluoromethyl)-1H-pyrazol-4-yl)-2-((1S,3R)-1-(2-fluoro-4-(2-methyl-2H-pyrazolo[3,4-b]pyridin-5-yl)phenyl)-4-oxo-5-azaspiro[2.4]heptan-5-yl)-N-(2-methyl-1-(5-(1-methyl-6-oxo-1,6-dihydropyridin-3-yl)-3-(trifluoromethyl)-1H-pyrazol-1-yl)propan-2-yl)propanamide] yielded an Emax of 56 ± 3.91% and an EC50 of 4.39 nM.
In the case of `Cn1cc(C[C@@H](NC(=O)[C@H]2C[C@@H]2c2ccc(-c3cnc4nn(C)cc4c3)cc2F)C(=O)NC(C)(C)Cn2nc(C(F)(F)F)cc2-c2cn[nH]n2)cn1` [Example 93, (1S,2S)-N—((R)-1-((1-(5-(2H-1,2,3-Triazol-4-yl)-3-(trifluoromethyl)-1H-pyrazol-1-yl)-2-methylpropan-2-yl)amino)-3-(1-methyl-1H-pyrazol-4-yl)-1-oxopropan-2-yl)-2-(2-fluoro-4-(2-methyl-2H-pyrazolo[3,4-b]pyridin-5-yl)phenyl)cyclopropane-1-carboxamide], the Emax is reported as 115 ± 1.41% and the EC50 is reported as 15.3 nM.
For `CC(C)(Cn1cc(C(F)(F)F)cn1)NC(=O)[C@@H](Cc1cnc2ncccn12)NC(=O)[C@H]1C[C@@H]1c1ccc(-c2cnc3nc(C(F)F)cn3c2)cc1` [Example 79, (1S,2S)-2-(4-(2-(Difluoromethyl)imidazo[1,2-a]pyrimidin-6-yl)phenyl)-N-((R)-3-(imidazo[1,2-a]pyrimidin-3-yl)-1-((2-methyl-1-(4-(trifluoromethyl)-1H-pyrazol-1-yl)propan-2-yl)amino)-1-oxopropan-2-yl)cyclopropane-1-carboxamide], the Emax was 104 ± 5% and the EC50 was 25.1 nM.
With `Cc1ncc(-c2cc(C(F)(F)F)nn2CC(C)(C)NC(=O)[C@@H](Cc2cnn(C(F)F)c2)N2CC[C@@]3(C[C@@H]3c3ccc(-c4cnc5nn(C6CC6)cc5c4)nc3C)C2=O)cn1` [Example 179, (R)-2-((1R,3R)-1-(6-(2-cyclopropyl-2H-pyrazolo[3,4-b]pyridin-5-yl)-2-methylpyridin-3-yl)-4-oxo-5-azaspiro[2.4]heptan-5-yl)-3-(1-(difluoromethyl)-1H-pyrazol-4-yl)-N-(2-methyl-1-(5-(2-methylpyrimidin-5-yl)-3-(trifluoromethyl)-1H-pyrazol-1-yl)propan-2-yl)propanamide] the Emax was 75.9 ± 4.59% and the EC50 was 2.95 nM.
In the case of `COC(=O)c1cc(C(F)(F)F)nn1CC(C)(C)NC(=O)[C@@H](Cc1cnn(C)c1)NC(=O)[C@H]1C[C@@H]1c1ccc(-c2cnc3nc(C(F)(F)F)cn3c2)cc1` [Example 24, Methyl 1-(2-methyl-2-((R)-3-(1-methyl-1H-pyrazol-4-yl)-2-((15,2S)-2-(4-(2-(trifluoromethyl)imidazo [1,2-a]pyrimidin-6-yl)phenyl)cyclopropane-1-carboxamido)propanamido)propyl)-3-(trifluoromethyl)-1H-pyrazole-5-carboxylate], the Emax is reported as 133 ± 0.579% and the EC50 is reported as 15.8 nM.
Compound `Cc1cn2cc(-c3ccc([C@H]4C[C@@]45CCN([C@H](Cc4cnn(C(F)F)c4)C(=O)NC(C)(C)Cn4nc(C(F)(F)F)cc4-c4ccc(=O)n(COP(=O)(O)O)n4)C5=O)c(Cl)c3)cnc2n1` [Example 150, (3-(1-(2-((R)-2-((1S,3R)-1-(2-Chloro-4-(2-methylimidazo[1,2-a]pyrimidin-6-yl)phenyl)-4-oxo-5-azaspiro[2.4]heptan-5-yl)-3-(1-(difluoromethyl)-1H-pyrazol-4-yl)propanamido)-2-methylpropyl)-3-(trifluoromethyl)-1H-pyrazol-5-yl)-6-oxopyridazin-1 (6H)-yl)methyl dihydrogen phosphate] has an Emax of 89.5 ± 6.21% and an EC50 of 2.06 nM.
Work on `Cn1cc(C[C@@H](NC(=O)[C@H]2C[C@@H]2c2ccc(-c3cnc4nn(C)cc4c3)cc2)C(=O)NC(C)(C)Cn2nc(C(F)(F)F)cc2-c2n[nH]c(=O)s2)cn1` [Example 16, (1S,2S)-N-((R)-1-((2-Methyl-1-(5-(5-oxo-4,5-dihydro-1,3,4-thiadiazol-2-yl)-3-(trifluoromethyl)-1H-pyrazol-1-yl)propan-2-yl)amino)-3-(1-methyl-1H-pyrazol-4-yl)-1-oxopropan-2-yl)-2-(4-(2-methyl-2H-pyrazolo[3,4-b]pyridin-5-yl)phenyl) cyclopropane-1-carboxamide] yielded an Emax of 104 ± 4.17% and an EC50 of 36 nM.
Work on `CN(C(=O)[C@H]1C[C@@H]1c1ccc(-c2cnc3nccn3c2)cc1)[C@H](Cc1cnn(C)c1)C(=O)NC(C)(C)Cn1nc(C(F)(F)F)cc1-c1ccc(=O)n(C)c1` [Example 34, (1S,2S)-2-(4-(imidazo[1,2-a]pyrimidin-6-yl)phenyl)-N-methyl-N-((R)-1-((2-methyl-1-(5-(1-methyl-6-oxo-1,6-dihydropyridin-3-yl)-3-(trifluoromethyl)-1H-pyrazol-1-yl)propan-2-yl)amino)-3-(1-methyl-1H-pyrazol-4-yl)-1-oxopropan-2-yl)cyclopropane-1-carboxamide] yielded an Emax of 113 ± 12.3% and an EC50 of 183 nM.
`CNC(=O)Cn1cc(-c2cc(C(F)(F)F)nn2CC(C)(C)NC(=O)[C@@H](Cc2cnn(C(F)F)c2)N2CC[C@@]3(C[C@@H]3c3ccc(-c4cnc5nn(C)cc5c4)cc3)C2=O)cn1` [Example 127, (R)-3-(1-(Difluoromethyl)-1H-pyrazol-4-yl)-N-(2-methyl-1-(1′-(2-(methylamino)-2-oxoethyl)-5-(trifluoromethyl)-1′H,2H-[3,4′-bipyrazol]-2-yl)propan-2-yl)-2-((1R,3R)-1-(4-(2-methyl-2H-pyrazolo[3,4-b]pyridin-5-yl)phenyl)-4-oxo-5-azaspiro[2.4]heptan-5-yl)propanamide] gave an Emax of 56.1 ± 4.15% and an EC50 of 60.1 nM.
`Cn1cc(-c2cc(C(F)(F)F)nn2CC(C)(C)NC(=O)[C@@H](Cc2cnn(C(F)F)c2)N2CCC3(CC3c3ccc4cnn(C)c4c3)C2=O)cc(F)c1=O` (single isomer, unassigned) [Example 184] was tested, and the Emax was 15.2 ± 1.27% and the EC50 was 15.2 nM.
`Cc1cc(C2CC2C(=O)N[C@H](Cc2cnn(C)c2)C(=O)NC(C)(C)Cc2ccc(F)cc2)ccc1NC(=O)Nc1ccc(F)cc1` (single isomer, unassigned; isomer 2) [Example 50] gave an Emax of 85.5 ± 2.37% and an EC50 of 82.3 nM.
